Source: PubChem BioAssay AID1259407 (Chemical Carcinogenesis Research Information System (CCRIS), 2018)
Calls of active or inactive are those of the source. The rule behind the calls is not given here.

Test system: CCRIS mutagenicity, Ames/micronucleus/aberration tests
Experiment: CCRIS mutagenicity studies

Measured: mutagenic call

Nc1nc(-c2ccc([N+](=O)[O-])cc2)nc2c1ncn2[C@@H]1O[C@H](CO)[C@@H](O)[C@H]1O
active: Test System: AMES SALMONELLA TYPHIMURIUM, Strain/Indicator: TA98(1,8-DNP), Metabolic Activation: NONE, Method: PREINCUBATION active; positive | Test System: AMES SALMONELLA TYPHIMURIUM, Strain/Indicator: TA98(NR), Metabolic Activation: NONE, Method: PREINCUBATION active; positive | Test System: AMES SALMONELLA TYPHIMURIUM, Strain/Indicator: TA98, Metabolic Activation: NONE, Method: PREINCUBATION active; positive | Test System: AMES SALMONELLA TYPHIMURIUM, Strain/Indicator: TA98, Metabolic Activation: RAT, LIVER, S-9, PCB, Method: PREINCUBATION active; positive | Test System: AMES SALMONELLA TYPHIMURIUM, Strain/Indicator: TA100, Metabolic Activation: NONE, Method: PREINCUBATION active; positive | Test System: AMES SALMONELLA TYPHIMURIUM, Strain/Indicator: TA100, Metabolic Activation: RAT, LIVER, S-9, PCB, Method: PREINCUBATION active; positive | Test System: AMES SALMONELLA TYPHIMURIUM, Strain/Indicator: YG1020, Metabolic Activation: NONE, Method: PREINCUBATION active; positive | Test System: AMES SALMONELLA TYPHIMURIUM, Strain/Indicator: YG1020, Metabolic Activation: RAT, LIVER, S-9, PCB, Method: PREINCUBATION active; positive | Test System: AMES SALMONELLA TYPHIMURIUM, Strain/Indicator: YG1021, Metabolic Activation: NONE, Method: PREINCUBATION active; positive | Test System: AMES SALMONELLA TYPHIMURIUM, Strain/Indicator: YG1021, Metabolic Activation: RAT, LIVER, S-9, PCB, Method: PREINCUBATION active; positive | Test System: AMES SALMONELLA TYPHIMURIUM, Strain/Indicator: YG1024, Metabolic Activation: NONE, Method: PREINCUBATION active; positive | Test System: AMES SALMONELLA TYPHIMURIUM, Strain/Indicator: YG1024, Metabolic Activation: RAT, LIVER, S-9, PCB, Method: PREINCUBATION active; positive | Test System: AMES SALMONELLA TYPHIMURIUM, Strain/Indicator: YG1025, Metabolic Activation: NONE, Method: PREINCUBATION active; positive | Test System: AMES SALMONELLA TYPHIMURIUM, Strain/Indicator: YG1025, Metabolic Activation: RAT, LIVER, S-9, PCB, Method: PREINCUBATION active; positive | Test System: AMES SALMONELLA TYPHIMURIUM, Strain/Indicator: YG1026, Metabolic Activation: NONE, Method: PREINCUBATION active; positive | Test System: AMES SALMONELLA TYPHIMURIUM, Strain/Indicator: YG1026, Metabolic Activation: RAT, LIVER, S-9, PCB, Method: PREINCUBATION active; positive | Test System: AMES SALMONELLA TYPHIMURIUM, Strain/Indicator: YG1029, Metabolic Activation: NONE, Method: PREINCUBATION active; positive | Test System: AMES SALMONELLA TYPHIMURIUM, Strain/Indicator: YG1029, Metabolic Activation: RAT, LIVER, S-9, PCB, Method: PREINCUBATION active; positive
inactive: Test System: AMES SALMONELLA TYPHIMURIUM, Strain/Indicator: TA98(NR), Metabolic Activation: RAT, LIVER, S-9, PCB, Method: PREINCUBATION inactive; negative | Test System: AMES SALMONELLA TYPHIMURIUM, Strain/Indicator: TA100(1,8-DNP), Metabolic Activation: RAT, LIVER, S-9, PCB, Method: PREINCUBATION inactive; negative | Test System: AMES SALMONELLA TYPHIMURIUM, Strain/Indicator: TA100(NR), Metabolic Activation: RAT, LIVER, S-9, PCB, Method: PREINCUBATION inactive; negative

O=c1c2ccccc2[nH]c2ccccc12
inactive: Test System: AMES SALMONELLA TYPHIMURIUM, Strain/Indicator: TA100, Metabolic Activation: GUINEA PIG, LIVER, S-9, 3-METHYLCHOLANTHRENE, Method: STANDARD PLATE inactive; negative

c1ccc2c(c1)ccc1ncccc12
active: End Point: IN VITRO CHROMOSOMAL ABERRATIONS, Test System: CHL CELLS, Metabolic Activation: RAT, LIVER, S-9, SODIUM PHENOBARBITAL AND 5,6-BENZOFLAVONE active; positive (structural changes) | End Point: IN VITRO MICRONUCLEUS, Test System: CHL/IU CELLS, Metabolic Activation: NONE active; positive | Test System: AMES SALMONELLA TYPHIMURIUM, Strain/Indicator: TA98, Metabolic Activation: RAT, LIVER, S-9, AROCLOR 1254, Method: STANDARD PLATE active; positive | Test System: AMES SALMONELLA TYPHIMURIUM, Strain/Indicator: TA100, Metabolic Activation: RAT, LIVER, S-9, AROCLOR 1254, Method: PREINCUBATION active; positive | Test System: AMES SALMONELLA TYPHIMURIUM, Strain/Indicator: TA100, Metabolic Activation: RAT, LIVER, S-9, AROCLOR 1254, Method: STANDARD PLATE active; positive | Test System: AMES SALMONELLA TYPHIMURIUM, Strain/Indicator: TA100, Metabolic Activation: RAT, LIVER, S-9, PHENOBARBITAL AND 5,6-BENZOFLAVONE, Method: PREINCUBATION active; positive

c1ccc2c(c1)-c1cc3ccc4ccccc4c3cc1[C@H]1N[C@@H]21
active: Test System: AMES SALMONELLA TYPHIMURIUM, Strain/Indicator: TA98, Metabolic Activation: NONE, Method: STANDARD PLATE active; positive | Test System: AMES SALMONELLA TYPHIMURIUM, Strain/Indicator: TA100, Metabolic Activation: NONE, Method: STANDARD PLATE active; positive

Nc1c(Cl)cc(-c2cc(Cl)c(N)c(Cl)c2)cc1Cl
active: Test System: UDS HUMAN CELLS, Strain/Indicator: THY INCORP (NON-S-PHASE), Metabolic Activation: RAT, LIVER, S-9, PHENOBARBITAL, Method: LIQUID SCINTILLATION COUNTING active; positive
